Source: patent US20130142831A1, “COMPOUNDS FOR INFLAMMATION AND IMMUNE-RELATED USES” (Synta Pharmaceuticals Corp., priority 2004, published 2013)
Where a name gives a salt, the structure may show the parent alone.

Columns and labels:
Assay type in all cases: cell-based
IL-5 = experiment: Cytokine inhibition in PHA-stimulated primary human PBMCs: IL-5; conditions: PBMCs stimulated with PHA; for IC50: Homo sapiens, PBMC, ELISA
Description: (§1) Cytokine production was measured using commercially available human ELISA assay kits (from Cell Science, Inc.) following the manufacturers instructions.

IL-2 = experiment: Cytokine inhibition in PHA-stimulated primary human PBMCs: IL-2; conditions: PBMCs stimulated with PHA; for IC50: Homo sapiens, PBMC, ELISA
Description: as §1

IL-13 = experiment: Cytokine inhibition in PHA-stimulated primary human PBMCs: IL-13; conditions: PBMCs stimulated with PHA; for IC50: Homo sapiens, PBMC, ELISA
Description: as §1

GM-CSF = experiment: Cytokine inhibition in PHA-stimulated primary human PBMCs: GM-CSF; conditions: PBMCs stimulated with PHA; for IC50: Homo sapiens, PBMC, ELISA
Description: as §1

IL-4 = experiment: Cytokine inhibition in PHA-stimulated primary human PBMCs: IL-4; conditions: PBMCs stimulated with PHA; for IC50: Homo sapiens, PBMC, ELISA
Description: as §1

IL-10 = experiment: Cytokine inhibition in PHA-stimulated primary human PBMCs: IL-10; conditions: PBMC, PBMCs stimulated with PHA, ELISA
Description: as §1

INF-γ = experiment: Cytokine inhibition in PHA-stimulated primary human PBMCs: INF-γ; conditions: PBMCs stimulated with PHA; for IC50: Homo sapiens, PBMC, ELISA
Description: as §1

TNF-α = experiment: Cytokine inhibition in PHA-stimulated primary human PBMCs: TNF-α; conditions: PBMCs stimulated with PHA; for IC50: Homo sapiens, PBMC, ELISA
Description: as §1

IL-2 production = experiment: Inhibition of IL-2 production in PHA-activated Jurkat cells; conditions: Homo sapiens, PHA 2.5 μg/mL, 20 hours, bins given in nM
In short: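 Jurkat cells (0.5 million/well, 1% FBS) were preincubated with compound for 10 min, then stimulated with PHA (2.5 μg/mL final) for 20 h at 37 °C. Supernatant IL-2 was measured by ELISA. IC50 is the concentration giving 50% inhibition of maximal stimulated IL-2 relative to a non-stimulated control.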

| IC50 (IL-5) [nM] | IC50 (IL-2) [nM] | IC50 (IL-13) [nM] | IC50 (GM-CSF) [nM] | IC50 (IL-4) [nM] | IC50 (IL-10) [nM] | IC50 (INF-γ) [nM] | IC50 (TNF-α) [nM] | IC50 (IL-2 production) [nM] | Compound | Inhibition of IL-5 (in words) (IL-5) | Inhibition of IL-2 (in words) (IL-2) | Inhibition of IL-13 (in words) (IL-13) | Inhibition of GM-CSF (in words) (GM-CSF) | Inhibition of IL-4 (in words) (IL-4) | Inhibition of INF-γ (in words) (INF-γ) | Inhibition of TNF-α (in words) (TNF-α) |
| --- | --- | --- | --- | --- | --- | --- | --- | --- | --- | --- | --- | --- | --- | --- | --- | --- |
| 26 | 29 | 73 | 788 | 651 | > 1000 | 95 | 424 | < 100 | COc1ccc2c(c1)nc(C(F)(F)F)n2-c1ccc(NC(=O)c2c(F)ccc(F)c2F)cc1 [Compound 1, 2,3,6-Trifluoro-N-[4-(2-trifluoromethyl-5-methoxy-benzoimidazol-1-yl)-phenyl]-benzamide] | – | – | – | – | – | – | – |
| – | – | – | – | – | – | – | – | 100 to 500 | COc1ccc2c(c1)nc(C(F)(F)F)n2-c1ccc(NC(=O)c2ccc3c(c2)OCO3)cc1 [Compound 75, Benzo[1,3]dioxole-5-carboxylic acid {N-[4-(2-trifluoromethyl-5-methoxy-benzoimidazol-1-yl)-phenyl]} amide] | potent inhibitors | potent inhibitors | potent inhibitors | potent inhibitors | potent inhibitors | potent inhibitors | potent inhibitors |
| – | – | – | – | – | – | – | – | 100 to 500 | CC(=O)c1ccc2c(c1)nc(C(F)(F)F)n2-c1ccc(NC(=O)c2cccc(F)c2F)cc1 [Compound 133, 2,3-Difluoro-N-[4-(2-trifluoromethyl-5-acetyl-benzoimidazol-1-yl)-phenyl]-benzamide] | – | – | – | – | – | – | – |
| 13 | 3 | 25 | 99 | 101 | 439 | 29 | 47 | < 100 | COc1ccc2c(c1)nc(C(F)(F)F)n2-c1ccc(NCc2c(F)cccc2F)cc1 [Compound 135, 2,6-Difluoro-N-[4-(2-trifluoromethyl-5-methoxy-benzoimidazol-1-yl)-phenyl]-benzylamine, HCl salt] | – | – | – | – | – | – | – |
